According to patent US9156845B2, “4-(substituted amino)-7H-pyrrolo[2,3-d] pyrimidines as LRRK2 inhibitors” (Pfizer Inc., priority 2012, dated 2015):
Read-outs that look alike come from different tables or passages of the source.

Experiments:
KSR1, KSR2 = test: ActivX kinase probe assay (human PBMC); format: binding
GSK3B = GSK3B (Homo sapiens (Human), UniProt P49841); test: ActivX kinase probe assay (human PBMC); format: binding; conditions: read-out: percent inhibition
IKKe, TBK1 = test: ActivX kinase probe assay (human PBMC); format: binding
NEK9 = NEK9 (Homo sapiens (Human), UniProt Q8TD19); test: ActivX kinase probe assay (human PBMC); format: binding; conditions: read-out: percent inhibition
LATS1 = LATS1 (Homo sapiens (Human), UniProt O95835); test: ActivX kinase probe assay (human PBMC); format: binding; conditions: read-out: percent inhibition
LRRK2 = LRRK2 (Homo sapiens (Human), UniProt Q5S007); test: ActivX kinase probe assay (human PBMC); format: binding; conditions: read-out: percent inhibition
SYK = SYK (Homo sapiens (Human), UniProt P43405); test: ActivX kinase probe assay (human PBMC); format: binding; conditions: read-out: percent inhibition
mutant G2019S LRRK2 = mutant G2019S LRRK2 (Homo sapiens (Human), UniProt Q5S007, G2019S); test: LRRK2 Lantha Screen kinase assay, mutant enzyme; format: biochemical; conditions: geometric mean of 2-5 determinations unless otherwise indicated (a: >=6 determinations; b: single determination)
MST4, YSK1 = test: ActivX kinase probe assay (human PBMC); format: binding
CDK5 = CDK5 (Homo sapiens (Human), UniProt Q00535); test: ActivX kinase probe assay (human PBMC); format: binding; conditions: read-out: percent inhibition
Sequence of CDK5 (Q00535 whole entry): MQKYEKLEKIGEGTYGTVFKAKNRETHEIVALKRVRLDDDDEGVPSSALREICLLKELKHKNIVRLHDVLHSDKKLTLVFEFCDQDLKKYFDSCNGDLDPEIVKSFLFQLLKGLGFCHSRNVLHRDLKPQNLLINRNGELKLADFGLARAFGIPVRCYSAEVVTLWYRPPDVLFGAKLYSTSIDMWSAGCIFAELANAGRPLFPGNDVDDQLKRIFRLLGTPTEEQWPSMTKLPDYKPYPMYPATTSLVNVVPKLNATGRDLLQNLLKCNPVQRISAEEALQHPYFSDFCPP

JNK1, JNK2, JNK3 = test: ActivX kinase probe assay (human PBMC); format: binding
KHS1 = KHS1 (Homo sapiens (Human), UniProt Q9Y4K4); test: ActivX kinase probe assay (human PBMC); format: binding; conditions: read-out: percent inhibition
EphA1 = EphA1 (Homo sapiens (Human), UniProt P21709); test: ActivX kinase probe assay (human PBMC); format: binding; conditions: read-out: percent inhibition
TLK2 = TLK2 (Homo sapiens (Human), UniProt Q86UE8); test: ActivX kinase probe assay (human PBMC); format: binding; conditions: read-out: percent inhibition
Sequence of TLK2 (Q86UE8 whole entry): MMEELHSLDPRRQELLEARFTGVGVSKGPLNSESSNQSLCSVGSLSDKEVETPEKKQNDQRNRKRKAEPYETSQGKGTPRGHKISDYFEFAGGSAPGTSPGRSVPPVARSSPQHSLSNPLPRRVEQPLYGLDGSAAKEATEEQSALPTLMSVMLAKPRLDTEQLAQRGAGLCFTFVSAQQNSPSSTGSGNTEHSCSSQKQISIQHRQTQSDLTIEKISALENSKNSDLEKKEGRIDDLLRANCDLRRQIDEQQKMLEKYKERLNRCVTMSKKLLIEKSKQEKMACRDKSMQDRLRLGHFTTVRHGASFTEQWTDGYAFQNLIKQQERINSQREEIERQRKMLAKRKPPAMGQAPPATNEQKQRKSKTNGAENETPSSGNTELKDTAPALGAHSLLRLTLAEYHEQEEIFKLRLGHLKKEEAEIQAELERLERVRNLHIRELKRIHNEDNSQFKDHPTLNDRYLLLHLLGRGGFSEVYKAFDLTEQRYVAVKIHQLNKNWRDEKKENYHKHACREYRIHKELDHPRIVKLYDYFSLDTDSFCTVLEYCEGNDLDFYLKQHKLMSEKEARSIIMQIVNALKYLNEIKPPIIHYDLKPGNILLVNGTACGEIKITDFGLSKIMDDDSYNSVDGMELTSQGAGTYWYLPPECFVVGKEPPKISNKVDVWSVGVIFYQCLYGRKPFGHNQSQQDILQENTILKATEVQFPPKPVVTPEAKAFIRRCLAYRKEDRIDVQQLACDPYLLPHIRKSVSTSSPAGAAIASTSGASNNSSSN

MST3 = MST3 (Homo sapiens (Human), UniProt Q9Y6E0); test: ActivX kinase probe assay (human PBMC); format: binding; conditions: read-out: percent inhibition
Sequence of MST3 (Q9Y6E0 whole entry): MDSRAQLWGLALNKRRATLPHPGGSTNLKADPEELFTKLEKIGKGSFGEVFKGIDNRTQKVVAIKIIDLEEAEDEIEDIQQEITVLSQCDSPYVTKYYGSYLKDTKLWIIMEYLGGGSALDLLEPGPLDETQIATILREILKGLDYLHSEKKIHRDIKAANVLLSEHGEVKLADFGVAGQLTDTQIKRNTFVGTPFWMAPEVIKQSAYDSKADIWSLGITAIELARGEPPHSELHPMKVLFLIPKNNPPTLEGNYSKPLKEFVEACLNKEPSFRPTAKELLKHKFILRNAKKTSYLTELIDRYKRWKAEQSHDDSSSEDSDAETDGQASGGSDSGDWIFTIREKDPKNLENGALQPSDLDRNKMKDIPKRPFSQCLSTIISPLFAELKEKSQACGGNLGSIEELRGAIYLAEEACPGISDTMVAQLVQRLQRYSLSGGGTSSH

eEF2K = eEF2K (Homo sapiens (Human), UniProt O00418); test: ActivX kinase probe assay (human PBMC); format: binding; conditions: read-out: percent inhibition
PIP5K3 = PIP5K3 (Homo sapiens (Human), UniProt Q9Y2I7); test: ActivX kinase probe assay (human PBMC); format: binding; conditions: read-out: percent inhibition
PKR = PKR (Homo sapiens (Human), UniProt P19525); test: ActivX kinase probe assay (human PBMC); format: binding; conditions: read-out: percent inhibition
MAP3K3 = MAP3K3 (Homo sapiens (Human), UniProt Q99759); test: ActivX kinase probe assay (human PBMC); format: binding; conditions: read-out: percent inhibition
RSK2 domain1 = RSK2 domain1 (Homo sapiens (Human), UniProt P51812); test: ActivX kinase probe assay (human PBMC); format: binding; conditions: read-out: percent inhibition
PRPK = PRPK (Homo sapiens (Human), UniProt Q96S44); test: ActivX kinase probe assay (human PBMC); format: binding; conditions: read-out: percent inhibition
Sequence of PRPK (Q96S44 whole entry): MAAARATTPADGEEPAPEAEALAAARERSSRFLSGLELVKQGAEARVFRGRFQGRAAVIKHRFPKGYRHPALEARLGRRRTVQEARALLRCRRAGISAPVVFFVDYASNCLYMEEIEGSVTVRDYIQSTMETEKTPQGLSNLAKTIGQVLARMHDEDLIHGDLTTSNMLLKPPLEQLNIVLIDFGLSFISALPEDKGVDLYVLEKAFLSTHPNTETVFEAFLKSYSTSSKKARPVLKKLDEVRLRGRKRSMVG
Procedure: Certain of the compounds of the present invention were assessed for kinase selectivity using a commercially available ActiveX targeted kinase probe in which the tissue employed was human peripheral blood mononuclear cells (PBMC). The test compounds were provided to ActivX Biosciences, Inc., 11025 North Torrey Pines Road, Suite 120; LaJolla, Calif., USA 92037. The compounds were run in the ActivX proprietary kinase assay and results were obtained at compound test concentrations of 1 μM (columns 2, 4 and 6) and 0.1 μM (columns 3, 5 and 7). The results as percent inhibition obtained for the compounds of Examples 1, 4 and 217 are provided below in Table 3.

MAP2K1, MAP2K2 = test: ActivX kinase probe assay (human PBMC); format: binding
ZC2/TNIK = ZC2/TNIK (Homo sapiens (Human), UniProt Q9UKE5); test: ActivX kinase probe assay (human PBMC); format: binding; conditions: read-out: percent inhibition
[1] = test system: ZC1/HGK, ZC2/TNIK, ZC3/MINK; test: ActivX kinase probe assay (human PBMC); format: binding
RSK2 domain2 = RSK2 domain2 (Homo sapiens (Human), UniProt P51812); test: ActivX kinase probe assay (human PBMC); format: binding; conditions: read-out: percent inhibition
IRAK1 = IRAK1 (Homo sapiens (Human), UniProt P51617); test: ActivX kinase probe assay (human PBMC); format: binding; conditions: read-out: percent inhibition
RIPK3 = RIPK3 (Homo sapiens (Human), UniProt Q9Y572); test: ActivX kinase probe assay (human PBMC); format: binding; conditions: read-out: percent inhibition
GSK3A = GSK3A (Homo sapiens (Human), UniProt P49840); test: ActivX kinase probe assay (human PBMC); format: binding; conditions: read-out: percent inhibition
Sequence of GSK3A (P49840 whole entry): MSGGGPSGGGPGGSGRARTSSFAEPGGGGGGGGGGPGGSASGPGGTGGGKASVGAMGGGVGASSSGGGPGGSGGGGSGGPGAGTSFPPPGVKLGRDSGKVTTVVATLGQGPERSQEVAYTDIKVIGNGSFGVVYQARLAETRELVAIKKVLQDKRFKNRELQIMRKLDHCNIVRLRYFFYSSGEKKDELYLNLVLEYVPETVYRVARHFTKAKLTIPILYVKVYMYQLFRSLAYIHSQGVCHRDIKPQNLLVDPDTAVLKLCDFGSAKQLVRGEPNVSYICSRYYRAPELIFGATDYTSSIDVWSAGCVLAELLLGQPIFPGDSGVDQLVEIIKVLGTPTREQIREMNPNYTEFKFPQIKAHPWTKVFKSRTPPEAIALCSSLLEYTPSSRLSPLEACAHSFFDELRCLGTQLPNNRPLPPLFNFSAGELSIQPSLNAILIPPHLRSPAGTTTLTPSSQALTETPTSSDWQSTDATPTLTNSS

PYK2 = PYK2 (Homo sapiens (Human), UniProt Q14289); test: ActivX kinase probe assay (human PBMC); format: binding; conditions: read-out: percent inhibition
Sequence of PYK2 (Q14289 whole entry): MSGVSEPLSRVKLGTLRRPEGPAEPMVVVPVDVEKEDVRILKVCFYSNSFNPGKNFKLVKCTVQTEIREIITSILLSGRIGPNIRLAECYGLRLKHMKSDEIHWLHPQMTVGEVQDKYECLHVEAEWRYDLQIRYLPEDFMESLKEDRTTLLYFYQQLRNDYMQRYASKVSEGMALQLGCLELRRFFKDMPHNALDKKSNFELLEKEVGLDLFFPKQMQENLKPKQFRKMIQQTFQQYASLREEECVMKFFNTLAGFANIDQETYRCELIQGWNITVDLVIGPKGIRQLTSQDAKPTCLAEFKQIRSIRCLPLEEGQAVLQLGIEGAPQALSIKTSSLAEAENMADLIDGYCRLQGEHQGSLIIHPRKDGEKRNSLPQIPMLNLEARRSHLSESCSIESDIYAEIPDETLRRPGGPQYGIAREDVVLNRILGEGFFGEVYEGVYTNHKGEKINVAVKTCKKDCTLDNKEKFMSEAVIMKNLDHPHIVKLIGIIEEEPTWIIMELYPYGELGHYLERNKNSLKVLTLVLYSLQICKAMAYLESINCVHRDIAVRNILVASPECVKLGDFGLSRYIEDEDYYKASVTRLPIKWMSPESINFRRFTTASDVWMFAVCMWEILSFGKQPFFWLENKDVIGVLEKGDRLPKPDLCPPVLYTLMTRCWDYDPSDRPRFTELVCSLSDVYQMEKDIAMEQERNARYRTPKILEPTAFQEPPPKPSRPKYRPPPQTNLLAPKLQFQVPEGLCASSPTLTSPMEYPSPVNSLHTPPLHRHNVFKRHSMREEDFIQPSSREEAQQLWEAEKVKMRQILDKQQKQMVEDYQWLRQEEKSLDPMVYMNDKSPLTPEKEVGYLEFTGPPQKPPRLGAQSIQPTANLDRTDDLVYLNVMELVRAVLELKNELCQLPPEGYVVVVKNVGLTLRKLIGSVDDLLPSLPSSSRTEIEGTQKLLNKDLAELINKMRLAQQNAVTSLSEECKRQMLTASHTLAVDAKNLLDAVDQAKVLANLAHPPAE

MAP2K6 = MAP2K6 (Homo sapiens (Human), UniProt P52564); test: ActivX kinase probe assay (human PBMC); format: binding; conditions: read-out: percent inhibition
Sequence of MAP2K6 (P52564 whole entry): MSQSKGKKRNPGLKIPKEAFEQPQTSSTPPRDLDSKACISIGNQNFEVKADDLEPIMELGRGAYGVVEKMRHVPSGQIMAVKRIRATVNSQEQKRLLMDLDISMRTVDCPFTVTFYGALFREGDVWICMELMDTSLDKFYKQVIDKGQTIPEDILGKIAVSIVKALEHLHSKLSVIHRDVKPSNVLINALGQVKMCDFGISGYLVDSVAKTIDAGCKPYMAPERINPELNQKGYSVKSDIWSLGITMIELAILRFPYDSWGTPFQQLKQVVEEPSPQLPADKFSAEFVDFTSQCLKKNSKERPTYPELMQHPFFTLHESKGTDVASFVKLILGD

TLK1 = TLK1 (Homo sapiens (Human), UniProt Q9UKI8); test: ActivX kinase probe assay (human PBMC); format: binding; conditions: read-out: percent inhibition
Sequence of TLK1 (Q9UKI8 whole entry): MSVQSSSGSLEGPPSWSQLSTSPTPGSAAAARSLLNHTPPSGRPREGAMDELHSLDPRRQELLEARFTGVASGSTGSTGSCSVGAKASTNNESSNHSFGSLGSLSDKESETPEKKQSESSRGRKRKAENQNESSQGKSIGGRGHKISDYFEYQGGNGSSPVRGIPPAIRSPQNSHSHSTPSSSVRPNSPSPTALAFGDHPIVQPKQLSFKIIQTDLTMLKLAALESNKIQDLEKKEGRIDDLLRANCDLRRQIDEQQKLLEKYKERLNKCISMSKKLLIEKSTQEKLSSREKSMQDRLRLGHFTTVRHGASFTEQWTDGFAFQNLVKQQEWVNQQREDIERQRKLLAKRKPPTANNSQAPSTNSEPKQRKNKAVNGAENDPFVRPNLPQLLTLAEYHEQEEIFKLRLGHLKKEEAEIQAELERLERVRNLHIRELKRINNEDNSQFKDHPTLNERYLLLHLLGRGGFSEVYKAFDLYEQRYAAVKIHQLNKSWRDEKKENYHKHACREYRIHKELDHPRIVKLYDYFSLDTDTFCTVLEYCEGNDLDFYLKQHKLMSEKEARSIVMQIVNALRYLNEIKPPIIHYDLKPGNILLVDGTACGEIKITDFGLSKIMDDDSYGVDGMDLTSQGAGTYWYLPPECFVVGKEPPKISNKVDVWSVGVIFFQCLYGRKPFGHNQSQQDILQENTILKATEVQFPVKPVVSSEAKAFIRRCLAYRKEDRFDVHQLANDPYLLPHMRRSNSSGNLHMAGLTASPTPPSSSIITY

HPK1 = HPK1 (Homo sapiens (Human), UniProt Q92918); test: ActivX kinase probe assay (human PBMC); format: binding; conditions: read-out: percent inhibition

Sequence of GSK3B (P49841 whole entry): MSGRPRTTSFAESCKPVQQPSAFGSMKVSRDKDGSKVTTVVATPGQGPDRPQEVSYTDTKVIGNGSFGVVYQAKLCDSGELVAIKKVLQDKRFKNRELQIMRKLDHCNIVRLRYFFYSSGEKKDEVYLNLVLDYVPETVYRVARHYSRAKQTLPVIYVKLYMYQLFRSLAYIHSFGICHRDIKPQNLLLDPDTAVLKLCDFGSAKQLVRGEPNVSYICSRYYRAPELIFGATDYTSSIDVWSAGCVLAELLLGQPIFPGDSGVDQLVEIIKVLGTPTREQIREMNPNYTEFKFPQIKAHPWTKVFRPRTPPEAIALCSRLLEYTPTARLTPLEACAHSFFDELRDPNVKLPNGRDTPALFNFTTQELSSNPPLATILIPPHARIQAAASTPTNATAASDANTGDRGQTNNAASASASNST

Cn1cc(-c2c[nH]c3ncnc(N4CCOCC4)c23)cn1 [Example 1, 5-(1-Methyl-1H-pyrazol-4-yl)-4-(morpholin-4-yl)-7H-pyrrolo[2,3-d]pyrimidine]
percent inhibition (KSR1, KSR2; 0.1 μM): 1.5% | percent inhibition (KSR1, KSR2; 1 μM): −14% | inhibition at 0.1 µM (GSK3B; GSK3B, 0.1 μM): 2.4% | inhibition at 1 µM (GSK3B; GSK3B, 1 μM): -5.2% | percent inhibition (IKKe, TBK1; 0.1 μM): 1.5% | percent inhibition (IKKe, TBK1; 1 μM): 23.7% | inhibition at 0.1 µM (NEK9; NEK9, 0.1 μM): -0.9% | inhibition at 1 µM (NEK9; NEK9, 1 μM): 12.6% | inhibition at 0.1 µM (LATS1; LATS1, 0.1 μM): 4.2% | inhibition at 1 µM (LATS1; LATS1, 1 μM): -16.2% | inhibition at 0.1 µM (LRRK2): 69% | inhibition at 1 µM (LRRK2): 88.1% | inhibition at 0.1 µM (SYK; SYK, 0.1 μM): -8.9% | inhibition at 1 µM (SYK; SYK, 1 μM): -6.1% | IC50 (mutant G2019S LRRK2): 36 nM | percent inhibition (MST4, YSK1; 0.1 μM): −11.4% | percent inhibition (MST4, YSK1; 1 μM): 15.1% | inhibition at 0.1 µM (CDK5; CDK5, 0.1 μM): -6.5% | inhibition at 1 µM (CDK5; CDK5, 1 μM): -35.1% | percent inhibition (JNK1, JNK2, JNK3; 0.1 μM): 7.1% | percent inhibition (JNK1, JNK2, JNK3; 1 μM): 7.7% | inhibition at 0.1 µM (KHS1; KHS1, 0.1 μM): 17.8% | inhibition at 1 µM (KHS1; KHS1, 1 μM): 24.6% | inhibition at 0.1 µM (EphA1; EphA1, 0.1 μM): -9.5% | inhibition at 1 µM (EphA1; EphA1, 1 μM): 19.6% | inhibition at 0.1 µM (TLK2; TLK2, 0.1 μM): -5.8% | inhibition at 1 µM (TLK2; TLK2, 1 μM): -21.1% | inhibition at 0.1 µM (MST3; MST3, 0.1 μM): 10.9% | inhibition at 1 µM (MST3; MST3, 1 μM): 28.4% | inhibition at 0.1 µM (eEF2K; eEF2K, 0.1 μM): -9.6% | inhibition at 1 µM (eEF2K; eEF2K, 1 μM): -6.5% | inhibition at 0.1 µM (PIP5K3; PIP5K3, 0.1 μM): 1.9% | inhibition at 1 µM (PIP5K3; PIP5K3, 1 μM): 15% | inhibition at 0.1 µM (PKR; PKR, 0.1 μM): -4.3% | inhibition at 1 µM (PKR; PKR, 1 μM): -17.3% | inhibition at 0.1 µM (MAP3K3; MAP3K3, 0.1 μM): -9.2% | inhibition at 1 µM (MAP3K3; MAP3K3, 1 μM): 7.2% | inhibition at 0.1 µM (RSK2 domain1; RSK2 domain1, 0.1 μM): -6.8% | inhibition at 1 µM (RSK2 domain1; RSK2 domain1, 1 μM): 5.6% | inhibition at 0.1 µM (PRPK): -3.4% | inhibition at 1 µM (PRPK): -13.8% | percent inhibition (MAP2K1, MAP2K2; 0.1 μM): 1% | percent inhibition (MAP2K1, MAP2K2; 1 μM): −2.2% | inhibition at 0.1 µM (ZC2/TNIK; ZC2/TNIK, 0.1 μM): -10.6% | inhibition at 1 µM (ZC2/TNIK; ZC2/TNIK, 1 μM): 31.2% | percent inhibition ([1]; 0.1 μM): −18% | percent inhibition ([1]; 1 μM): 4.9% | inhibition at 0.1 µM (RSK2 domain2; RSK2 domain2, 0.1 μM): 0.6% | inhibition at 1 µM (RSK2 domain2; RSK2 domain2, 1 μM): 9.1% | inhibition at 1 µM (IRAK1; IRAK1, 1 μM): -9.1% | inhibition at 0.1 µM (IRAK1): -13.8% | inhibition at 0.1 µM (RIPK3; RIPK3, 0.1 μM): 5.6% | inhibition at 1 µM (RIPK3; RIPK3, 1 μM): -4.2% | inhibition at 0.1 µM (GSK3A; GSK3A, 0.1 μM): -0.2% | inhibition at 1 µM (GSK3A; GSK3A, 1 μM): -11.4% | inhibition at 0.1 µM (PYK2; PYK2, 0.1 μM): 5.9% | inhibition at 1 µM (PYK2; PYK2, 1 μM): 19.5% | inhibition at 0.1 µM (MAP2K6; MAP2K6, 0.1 μM): 17.5% | inhibition at 1 µM (MAP2K6; MAP2K6, 1 μM): 19% | inhibition at 0.1 µM (TLK1; TLK1, 0.1 μM): 7.8% | inhibition at 1 µM (TLK1; TLK1, 1 μM): 2.7% | inhibition at 0.1 µM (HPK1; HPK1, 0.1 μM): -9.7% | inhibition at 1 µM (HPK1; HPK1, 1 μM): -14.9%

N#Cc1cccc(-c2c[nH]c3ncnc(N4CCOCC4)c23)c1 [Example 4, 3-[4-(Morpholin-4-yl)-7H-pyrrolo[2,3-d]pyrimidin-5-yl]benzonitrile]
percent inhibition (KSR1, KSR2; 0.1 μM): −8.7% | percent inhibition (KSR1, KSR2; 1 μM): 11.7% | inhibition at 0.1 µM (GSK3B): -3.7% | inhibition at 1 µM (GSK3B): 6.7% | percent inhibition (IKKe, TBK1; 0.1 μM): −6.7% | percent inhibition (IKKe, TBK1; 1 μM): 18.8% | inhibition at 0.1 µM (NEK9): -7.1% | inhibition at 1 µM (NEK9): 1% | inhibition at 0.1 µM (LATS1): -4.8% | inhibition at 1 µM (LATS1): 5.4% | inhibition at 0.1 µM (LRRK2): 79.9% | inhibition at 1 µM (LRRK2): 94.1% | inhibition at 0.1 µM (SYK): -8.3% | inhibition at 1 µM (SYK): 7.2% | IC50 (mutant G2019S LRRK2): 11 nM | percent inhibition (MST4, YSK1; 0.1 μM): 11.9% | percent inhibition (MST4, YSK1; 1 μM): 60.7% | inhibition at 0.1 µM (CDK5): -12.2% | inhibition at 1 µM (CDK5): 0.1% | percent inhibition (JNK1, JNK2, JNK3; 0.1 μM): −5.3% | percent inhibition (JNK1, JNK2, JNK3; 1 μM): 5.4% | inhibition at 0.1 µM (KHS1): -25.9% | inhibition at 1 µM (KHS1): 12.9% | inhibition at 0.1 µM (EphA1): -17% | inhibition at 1 µM (EphA1): -2.5% | inhibition at 0.1 µM (TLK2): -8.4% | inhibition at 1 µM (TLK2): -9.4% | inhibition at 0.1 µM (MST3): 0.1% | inhibition at 1 µM (MST3): 46.2% | inhibition at 0.1 µM (eEF2K): -27.1% | inhibition at 1 µM (eEF2K): 2.8% | inhibition at 0.1 µM (PIP5K3): -11.2% | inhibition at 1 µM (PIP5K3): 21.6% | inhibition at 0.1 µM (PKR): -3.3% | inhibition at 1 µM (PKR): 7.2% | inhibition at 0.1 µM (MAP3K3): -0.5% | inhibition at 1 µM (MAP3K3): 7.4% | inhibition at 0.1 µM (RSK2 domain1): -6% | inhibition at 1 µM (RSK2 domain1): -11.2% | inhibition at 0.1 µM (PRPK): 3% | inhibition at 1 µM (PRPK): -3.7% | percent inhibition (MAP2K1, MAP2K2; 0.1 μM): −7.1% | percent inhibition (MAP2K1, MAP2K2; 1 μM): 6.4% | inhibition at 0.1 µM (ZC2/TNIK): -7.9% | inhibition at 1 µM (ZC2/TNIK): 29.2% | percent inhibition ([1]; 0.1 μM): −3.2% | percent inhibition ([1]; 1 μM): 14.8% | inhibition at 0.1 µM (RSK2 domain2): -10% | inhibition at 1 µM (RSK2 domain2): 21.4% | inhibition at 0.1 µM (IRAK1): -2.9% | inhibition at 1 µM (IRAK1): 2.1% | inhibition at 0.1 µM (RIPK3): -3.2% | inhibition at 1 µM (RIPK3): 8% | inhibition at 0.1 µM (GSK3A): -0.9% | inhibition at 1 µM (GSK3A): 7.2% | inhibition at 0.1 µM (PYK2): -3.9% | inhibition at 1 µM (PYK2): 2.5% | inhibition at 0.1 µM (MAP2K6): -15.1% | inhibition at 1 µM (MAP2K6): 13.5% | inhibition at 0.1 µM (TLK1): -4.6% | inhibition at 1 µM (TLK1): -3.7% | inhibition at 0.1 µM (HPK1): -1.5% | inhibition at 1 µM (HPK1): 5.7%
